Data reported in patent EP4796129A1, “ANTI-NECTIN-4 ANTIBODY-DRUG CONJUGATE COMPRISING CAMPTOTHECIN DERIVATIVE” (Celltrion, Inc., priority 2023, dated 2025).

Key:
[1] = system: PC-3 (a prostate cancer cell line); assay: In-vitro cell viability assay (CellTiter-Glo); format: cell-based
[2] = system: SUM190PT (a breast cancer cell line); assay: In-vitro cell viability assay (CellTiter-Glo); format: cell-based
[3] = system: T47D (a breast cancer cell line); assay: cells; details: Homo sapiens
Experimental: Specifically, the cell lines described in Table 5 were seeded per well in a 96-well plate and incubated at room temperature (37°C, 5% CO2). After 24 hours, the cells were treated with 100 µL of payload compounds or ADC drugs at 9 concentrations (a 4-fold serial dilution starting from 1,000 nM). In particular, a control group (drug concentration 0), which is an untreated group, was also prepared. After 6 days of incubation (37°C, 5% CO2), 100 µL of CellTiter-Glo reagent (CellTiter-Glo® Luminescent Cell Viability Assay kit (Promega, G7571)) was added to each well and pipetted. Fluorescence was measured after incubation at room temperature (RT) for 10 minutes.

[4] = system: T47D human breast cancer; assay: Xenograft model of T47D human breast cancer (xxT47D) in BALB/c nude mice; format: in vivo, female BALB/c nude mice; details: 50 mg/kg p.o. QD x 4 weeks
[5] = system: bladder cancer xenograft model (BL9200); assay: HuPrime bladder cancer xenograft model (BL9200) in NOD/SCID mice; format: in vivo, NOD/SCID strain female mice; details: for Tumor Volume (mean ± SEM), Day 25: number of mice in brackets

Compound: CC[C@@]1(O)C(=O)OCc2c1cc1n(c2=O)Cc2c-1nc1cc(F)c(C)c3c1c2[C@@H](N)CC3 [Exatecan, reference compound]
- IC50 [1]: 0.62 nM
- IC50 [2]: 2.3 nM

Compound: CC[C@@]1(O)C(=O)OCc2c1cc1n(c2=O)Cc2c-1nc1cc3c(c4c1c2[C@@H](NC(=O)[C@@H](C)O)CC4)OCO3 [PBX-7016]
- IC50 [3]: 0.47 nM
- IC50 [1]: 3.51 nM
- IC50 [2]: 9.4 nM

Compound: CC(=O)c1c(C)c2cnc(Nc3ccc(N4CCNCC4)cn3)nc2n(C2CCCC2)c1=O [Palbociclib]
- Tumor Weight (g) on Day 28, mean ± SEM [4]: 0.396 ± 0.047 g
- Tumor Volume (mm^3), mean ± SEM ([4]; day 3): 249 ± 17 mm^3
- Tumor Volume (mm^3), mean ± SEM ([4]; day 7): 290 ± 22 mm^3
- Tumor Volume (mm^3), mean ± SEM ([4]; day 10): 328 ± 23 mm^3
- Tumor Volume (mm^3), mean ± SEM ([4]; day 14): 342 ± 26 mm^3
- Tumor Volume (mm^3), mean ± SEM ([4]; day 17): 344 ± 29 mm^3
- Tumor Volume (mm^3), mean ± SEM ([4]; day 21): 360 ± 36 mm^3
- Tumor Volume (mm^3), mean ± SEM ([4]; day 24): 384 ± 42 mm^3
- T/Cweight (%) ([4]; day 28): 41.79%
- TGI (%) ([4]; day 28): 70.93%
- Tumor Volume (mm^3), mean ± SEM ([4]; day 28): 407 ± 49 mm^3
- T/C (%) ([4]; tumor volume day 28 vs control G1): 43.63%

Compound: PADCEV: ADC in which anti-Nectin4 mAb and MMAE are linked by an mc-vc-PAB linker [reference compound]
- TGI (%), Day 25 ([5]; 5 mg/kg i.v. QW × 3wks): 108.4%
- ΔT/ΔC (%), Day 25 ([5]; 5 mg/kg i.v. QW × 3wks): -8.4%
- Tumor Volume (mean ± SEM), Day 25 ([5]; 5 mg/kg i.v. QW × 3wks): 27.26 +/- 2.75(10) mm^3
- TGI (%), Day 25 ([5]; 10 mg/kg i.v. QW × 3wks): 109.4%
- ΔT/ΔC (%), Day 25 ([5]; 10 mg/kg i.v. QW × 3wks): -9.4%
- Tumor Volume (mean ± SEM), Day 25 ([5]; 10 mg/kg i.v. QW × 3wks): 11.07 +/- 3.12(10) mm^3
